Assay results published in ChEMBL document CHEMBL1201862, “PubChem BioAssay data set” (2004).
Calls of active or inactive are those of the source.

Legend:
Fatty acid synthase [1] = biological target: T1, Fatty acid synthase (Homo sapiens, UniProt P49327); test: FAS thioesterase domain inhibitors, dose response, biochemical, endpoint fluorescence intensity, uHTS hits (AID 624327); type: functional;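 note: fluorescence from hydrolysis of an O-methyl fluorescein acyl ester substrate by the enzyme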
Streptococcus [2] = test: Luminescence Microorganism-Based Dose Response Follow up to Identify Compounds Cytotoxic to Streptococcus. [Related pubchem assays: 1677 (Project Summary), 1915, 1914, 1902 (Retest at Dose), 1900 (Counter Screen), 1662 (Primary HTS)]; type: functional, organism-based
[3] = biological target: Heat shock protein HSP 90-alpha (Homo sapiens, UniProt P07900); type: functional, organism-based
Beta Lactamase = Beta Lactamase (Pseudomonas aeruginosa, UniProt Q932Y6); test: beta-lactamase reporter inhibitor potency, dose response, artefact control for NOD2-RIPK2 interaction inhibitor project, BLA reporter cells, FRET fluorescence (AID 651552); type: functional, cell-based
[4] = control 3'UTR Renilla luciferase suppression, dose response, counter-screen for Shn3 inhibitor project, cell-based, Clone20-Shn3RL, cherry-picked (AID 624133); type: functional
[5] = HepG2 cell cytotoxicity, dose response, cytotoxicity control for Shn3 inhibitor project, CellTiter-Glo, cherry-picked (AID 624134); type: functional, cell-based
Streptokinase A = biological target: T2, Streptokinase A (Streptococcus pyogenes serotype M1, UniProt P10520); test: S. pyogenes streptokinase expression inhibitors, potency, dose response, plasminogen activation absorbance, OD405 (AID 1914); type: functional, Streptococcus pyogenes M1 GAS;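 note: secreted streptokinase activity via plasminogen activation per viability signal from cell pellet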
T2 sequence (P10520 whole entry): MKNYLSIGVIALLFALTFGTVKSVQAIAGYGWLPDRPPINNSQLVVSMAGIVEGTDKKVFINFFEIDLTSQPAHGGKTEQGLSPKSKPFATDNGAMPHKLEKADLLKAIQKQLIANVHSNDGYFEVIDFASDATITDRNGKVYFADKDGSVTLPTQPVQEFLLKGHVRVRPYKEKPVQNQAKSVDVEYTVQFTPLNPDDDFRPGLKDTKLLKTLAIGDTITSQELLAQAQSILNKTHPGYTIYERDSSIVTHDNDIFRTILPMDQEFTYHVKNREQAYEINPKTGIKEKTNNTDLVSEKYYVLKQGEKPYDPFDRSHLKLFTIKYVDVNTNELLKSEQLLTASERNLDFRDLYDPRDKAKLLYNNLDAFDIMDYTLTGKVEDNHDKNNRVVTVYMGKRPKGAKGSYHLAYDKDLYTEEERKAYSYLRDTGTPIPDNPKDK

Streptococcus [6] = test: Group A Streptococcus viability loss, dose response, counter-screen for streptokinase expression inhibitor project, luminescence, BacTiterGlo (AID 1915); type: functional, organism-based;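 note: potency for reduction of bacterial viability or growth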
[7] = Fluorescence-based cell-based high throughput dose response assay for inhibitors of the interaction of nucleotide-binding oligomerization domain containing 2 (NOD2) and the receptor-interacting serine-threonine kinase 2 (RIPK2).; type: functional; details: Homo sapiens
[8] = Shn3 3'UTR reporter inhibitors, dose response, cell-based, Clone20 osteoblasts, firefly luciferase, cherry-picked (AID 624132); type: functional;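 note: firefly luciferase luminescence from reporter carrying the Shn3 3'UTR in osteoblasts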
[9] = system: Streptococcus sp. 'group A'; test: growth inhibition of control SK(-) GAS strain, dose response, counter-screen for streptokinase expression inhibitor project, luminescence, kanamycin, BacTiterGlo, confirmation (AID 1900); type: functional, organism-based
Fatty acid synthase [10] = biological target: T1, Fatty acid synthase; test: FAS thioesterase domain inhibitors, dose response, biochemical, kinetic fluorescence intensity (AID 624326); type: functional;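 note: rate of fluorescence rise from hydrolysis of a fluorogenic O-methyl fluorescein ester substrate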
Aminopeptidase N = biological target: T3, Aminopeptidase N (Plasmodium falciparum FcB1/Columbia, UniProt O96935); test: P. falciparum M1AAP inhibitors, biochemical, fluorogenic H-Leu-NHMec substrate, 1536-well (AID 1445); design: species or system Plasmodium falciparum 3D7, 3D7
T3 sequence (O96935 whole entry): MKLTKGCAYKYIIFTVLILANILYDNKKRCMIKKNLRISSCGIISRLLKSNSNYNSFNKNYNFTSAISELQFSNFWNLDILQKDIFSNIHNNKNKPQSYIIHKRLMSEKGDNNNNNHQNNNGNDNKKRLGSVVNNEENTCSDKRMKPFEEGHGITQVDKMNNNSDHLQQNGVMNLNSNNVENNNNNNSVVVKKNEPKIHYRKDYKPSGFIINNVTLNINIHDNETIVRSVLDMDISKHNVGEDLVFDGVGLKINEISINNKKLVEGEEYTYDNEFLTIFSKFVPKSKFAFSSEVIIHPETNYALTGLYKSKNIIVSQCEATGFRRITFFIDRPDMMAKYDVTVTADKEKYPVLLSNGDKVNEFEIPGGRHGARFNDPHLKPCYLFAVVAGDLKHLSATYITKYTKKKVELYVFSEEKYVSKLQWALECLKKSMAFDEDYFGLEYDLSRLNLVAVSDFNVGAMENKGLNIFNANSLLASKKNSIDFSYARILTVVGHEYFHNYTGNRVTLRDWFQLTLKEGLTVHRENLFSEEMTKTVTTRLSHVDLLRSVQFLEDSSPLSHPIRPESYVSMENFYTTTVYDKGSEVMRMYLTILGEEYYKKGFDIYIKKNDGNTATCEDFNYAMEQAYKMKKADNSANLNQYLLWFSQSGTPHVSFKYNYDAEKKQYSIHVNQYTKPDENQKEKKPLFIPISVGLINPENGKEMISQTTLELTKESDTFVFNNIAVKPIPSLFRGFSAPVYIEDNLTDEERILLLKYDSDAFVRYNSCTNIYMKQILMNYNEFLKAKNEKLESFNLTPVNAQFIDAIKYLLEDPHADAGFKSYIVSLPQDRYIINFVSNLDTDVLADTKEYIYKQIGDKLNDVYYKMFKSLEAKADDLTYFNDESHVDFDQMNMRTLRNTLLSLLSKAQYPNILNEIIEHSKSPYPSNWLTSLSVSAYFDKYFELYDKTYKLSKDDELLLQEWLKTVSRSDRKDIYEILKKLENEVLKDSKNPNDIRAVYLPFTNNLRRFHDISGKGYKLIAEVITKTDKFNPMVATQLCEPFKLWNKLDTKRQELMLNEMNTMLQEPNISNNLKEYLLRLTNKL

[11] = biological target: Neuropeptide Y receptor type 1 (Homo sapiens, UniProt P25929); test: Fluorescence-based counterscreen for agonists of NPY-Y2: cell-based high-throughput dose response assay for agonists of NPY-Y1.; type: functional
HEK293 = test: Fluorescence-based counterscreen for potentiators or agonists of NPY-Y2: cell-based high-throughput dose response assay to identify inhibitors of cyclic nucleotide gated ion channel (CNGC) activity. In this assay, the parental HEK293 cell line transfected with a cyclic-nucleotide gated ion channel (CNGC)-based cAMP sensor is used to measure inhibition of isoproterenol-induced CNGC activity by test compound.; type: functional; details: Homo sapiens
[12] = biological target: Neuropeptide Y receptor type 2 (Homo sapiens, UniProt P49146); test: Fluorescence-based cell-based high-throughput dose response assay for agonists of NPY-Y2. [Related pubchem assays: 1703 (Screening assay (CNGC inhibitors).), 1359 (Screening assay (NPY-Y2 potentiators or agonists).), 1304 (Screening assay (NPY-Y1 potentiators or agonists).), 1710 (Screening assay (NPY-Y2 agonists).), 1791 (Summary AID.)]; type: functional
[13] = Luminescence Cell-Based Dose Response HTS to Identify Inhibitors of 5'UTR Stem-Loop Driven Prion Protein mRNA Translation in H4 Neuroglioblastoma Cells. [Related pubchem assays: 1827 (Project Summary), 1813 (Primary HTS)]; type: functional
[14] = biological target: G2/mitotic-specific cyclin-B1 (Homo sapiens, UniProt P14635); test: Counterscreen assay for inhibitors of Wee1 degradation: dose response cell-based assay to identify inhibitors of cyclin B degradation. [Related pubchem assays: 1410, 1321 ]; type: functional
[15] = inhibitors of HIV Env-driven cell fusion, dose response, cherry-pick (AID 652057); type: functional, cell-based
[16] = inhibitors of firefly luciferase expression or activity, dose response, H4 neuroglioma cells, luminescence (AID 1990); type: functional, cell-based
[17] = ZM109 Env clade C HIV-1 fusion inhibitors, dose response, HeLa effector, CEM target cells, luciferase, cherry-pick (AID 652058); type: functional, cell-based
Wee1-like protein kinase = Wee1-like protein kinase (Homo sapiens, UniProt P30291); test: Dose Response Cell-based Assay for Inhibitors of Wee1 Degradation. [Related pubchem assays: 1410, 1321 ]; type: functional
[18] = inhibitors of SNCA 5'UTR-driven reporter translation, confirmation, H4 neuroglioma cells, luminescence (AID 1988); type: functional, cell-based
[19] = inhibitors of clade B AD8 Env fusion, dose response, cell-based, cherry-pick (AID 652062); type: functional;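 note: luciferase signal from cell-cell fusion driven by HIV-1 clade B AD8 Env; potency is for inhibitors of fusion seen as a drop in luminescence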
[20] = off-target signal loss in HeLa-CEM21 co-culture – HeLa F-luc CTL cells, cherry-picked, counter-screen for HIV-1 Env fusion inhibitor project, dose response (AID 652040); type: functional, cell-based;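 note: potency for signal decrease marking cytotoxic or nonspecific inhibition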
[21] = biological target: Serine/threonine-protein phosphatase (Homo sapiens, UniProt Q9BPW0); test: Counterscreen for inhibitors of PP1: fluorescence-based biochemical high throughput dose response assay to identify inhibitors of Protein Phosphatase 5 (PP5). [Related pubchem assays: 2034 (Summary (PP5 inhibitors)), 1987 (PP5 inhibitors in singlate), 2235 (PP1 inhibitors in singlate)]
[22] = biological target: Serine/threonine-protein phosphatase PP1-alpha catalytic subunit (Homo sapiens, UniProt P62136); test: PP1 phosphatase inhibitors, dose response, biochemical, fluorescence (AID 2403);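 note: phosphatase turnover of OMFP into fluorescent 3-O-methylfluorescein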
[23] = biological target: Sphingosine 1-phosphate receptor 2 (Homo sapiens, UniProt O95136); test: Dose Response Cell Based Assay for Agonists of the S1P2 Receptor of Purchased Analogues. [Related pubchem assays: 729, 843, 854, 736 ]; type: functional
[24] = biological target: T4, Microphthalmia-associated transcription factor (Homo sapiens, UniProt O75030); test: TRPM1 promoter luciferase signal decrease, dose response, MITF inhibitor project, cell-based, SK-MEL-5, cherry-picked, set 3 (AID 493073); type: functional
T4 sequence (O75030 whole entry): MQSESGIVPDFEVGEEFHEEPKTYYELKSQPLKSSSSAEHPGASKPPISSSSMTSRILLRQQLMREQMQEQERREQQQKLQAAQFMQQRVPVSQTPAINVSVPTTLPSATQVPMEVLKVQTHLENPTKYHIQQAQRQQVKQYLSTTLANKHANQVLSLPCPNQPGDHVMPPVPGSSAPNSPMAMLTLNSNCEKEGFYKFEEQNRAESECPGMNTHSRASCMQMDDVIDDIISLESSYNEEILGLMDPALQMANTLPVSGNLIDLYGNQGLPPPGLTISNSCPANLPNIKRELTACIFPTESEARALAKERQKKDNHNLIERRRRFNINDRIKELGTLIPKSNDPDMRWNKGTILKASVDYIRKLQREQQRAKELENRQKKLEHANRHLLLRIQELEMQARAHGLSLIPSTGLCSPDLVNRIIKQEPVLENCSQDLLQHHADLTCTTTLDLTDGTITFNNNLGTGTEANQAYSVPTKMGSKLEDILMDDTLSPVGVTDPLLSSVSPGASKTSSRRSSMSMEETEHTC

[25] = enhancers of respiration in Yfh1-depleted yeast, dose response, Friedreich's ataxia, plus single-dose screen (AID 1465); type: functional;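 note: yeast depleted of Yfh1p frataxin homolog grown on glycerol needing respiration; WST-1 tetrazolium dye reduction as measure of cellular dehydrogenase metabolic activity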
[26] = biological target: T5, Heat shock factor protein 1 (Mus musculus, UniProt P38532); test: HSF1 potentiators in luciferase reporter cells, confirmation, cell-based, NIH3T3, luminescence, dose retest (AID 435004); type: functional;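 note: stress induced by proteasome inhibitor MG132 added 30 min after compound; luciferase reporter driven by HSF1 response element in NIH3T3 cells; actives raise luminescence as potentiators of the MG132 stress response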
T5 sequence (P38532 whole entry): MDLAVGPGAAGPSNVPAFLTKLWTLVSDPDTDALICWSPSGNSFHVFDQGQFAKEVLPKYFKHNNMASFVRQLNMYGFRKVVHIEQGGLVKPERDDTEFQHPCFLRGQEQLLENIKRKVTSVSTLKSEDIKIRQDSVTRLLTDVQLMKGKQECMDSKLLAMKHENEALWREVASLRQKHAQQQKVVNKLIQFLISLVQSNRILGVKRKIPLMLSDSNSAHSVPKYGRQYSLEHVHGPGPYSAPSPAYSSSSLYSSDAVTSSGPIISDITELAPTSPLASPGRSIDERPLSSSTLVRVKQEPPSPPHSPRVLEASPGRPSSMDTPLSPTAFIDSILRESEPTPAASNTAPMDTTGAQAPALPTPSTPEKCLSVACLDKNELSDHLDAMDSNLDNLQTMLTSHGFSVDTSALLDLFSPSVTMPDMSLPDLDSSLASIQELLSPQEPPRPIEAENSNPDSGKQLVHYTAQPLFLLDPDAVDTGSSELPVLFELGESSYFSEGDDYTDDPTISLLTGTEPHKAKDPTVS

Oxytocin receptor = Oxytocin receptor (Homo sapiens, UniProt P30559); test: Fluorescence-based cell-based high throughput dose response assay for potentiators of Oxytocin Receptor (OXTR). [Related pubchem assays: 434985 (Confirmation screen (OXTR potentiators in triplicate)), 2481 (Summary (OXTR potentiators)), 2445 (Primary screen (OXTR potentiators in singlicate))]; type: functional
Sequence of Oxytocin receptor (P30559 whole entry): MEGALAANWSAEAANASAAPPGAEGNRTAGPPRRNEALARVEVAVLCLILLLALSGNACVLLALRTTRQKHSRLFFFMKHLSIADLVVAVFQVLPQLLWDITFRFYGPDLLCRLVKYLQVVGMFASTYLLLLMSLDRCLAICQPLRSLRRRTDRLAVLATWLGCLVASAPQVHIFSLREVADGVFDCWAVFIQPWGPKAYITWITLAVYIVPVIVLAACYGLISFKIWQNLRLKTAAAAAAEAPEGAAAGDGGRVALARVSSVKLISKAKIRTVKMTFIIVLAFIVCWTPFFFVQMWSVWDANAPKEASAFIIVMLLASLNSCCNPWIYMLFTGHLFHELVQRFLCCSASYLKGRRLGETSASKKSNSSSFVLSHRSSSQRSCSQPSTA

T1 sequence (P49327 whole entry, the tested form may be a part): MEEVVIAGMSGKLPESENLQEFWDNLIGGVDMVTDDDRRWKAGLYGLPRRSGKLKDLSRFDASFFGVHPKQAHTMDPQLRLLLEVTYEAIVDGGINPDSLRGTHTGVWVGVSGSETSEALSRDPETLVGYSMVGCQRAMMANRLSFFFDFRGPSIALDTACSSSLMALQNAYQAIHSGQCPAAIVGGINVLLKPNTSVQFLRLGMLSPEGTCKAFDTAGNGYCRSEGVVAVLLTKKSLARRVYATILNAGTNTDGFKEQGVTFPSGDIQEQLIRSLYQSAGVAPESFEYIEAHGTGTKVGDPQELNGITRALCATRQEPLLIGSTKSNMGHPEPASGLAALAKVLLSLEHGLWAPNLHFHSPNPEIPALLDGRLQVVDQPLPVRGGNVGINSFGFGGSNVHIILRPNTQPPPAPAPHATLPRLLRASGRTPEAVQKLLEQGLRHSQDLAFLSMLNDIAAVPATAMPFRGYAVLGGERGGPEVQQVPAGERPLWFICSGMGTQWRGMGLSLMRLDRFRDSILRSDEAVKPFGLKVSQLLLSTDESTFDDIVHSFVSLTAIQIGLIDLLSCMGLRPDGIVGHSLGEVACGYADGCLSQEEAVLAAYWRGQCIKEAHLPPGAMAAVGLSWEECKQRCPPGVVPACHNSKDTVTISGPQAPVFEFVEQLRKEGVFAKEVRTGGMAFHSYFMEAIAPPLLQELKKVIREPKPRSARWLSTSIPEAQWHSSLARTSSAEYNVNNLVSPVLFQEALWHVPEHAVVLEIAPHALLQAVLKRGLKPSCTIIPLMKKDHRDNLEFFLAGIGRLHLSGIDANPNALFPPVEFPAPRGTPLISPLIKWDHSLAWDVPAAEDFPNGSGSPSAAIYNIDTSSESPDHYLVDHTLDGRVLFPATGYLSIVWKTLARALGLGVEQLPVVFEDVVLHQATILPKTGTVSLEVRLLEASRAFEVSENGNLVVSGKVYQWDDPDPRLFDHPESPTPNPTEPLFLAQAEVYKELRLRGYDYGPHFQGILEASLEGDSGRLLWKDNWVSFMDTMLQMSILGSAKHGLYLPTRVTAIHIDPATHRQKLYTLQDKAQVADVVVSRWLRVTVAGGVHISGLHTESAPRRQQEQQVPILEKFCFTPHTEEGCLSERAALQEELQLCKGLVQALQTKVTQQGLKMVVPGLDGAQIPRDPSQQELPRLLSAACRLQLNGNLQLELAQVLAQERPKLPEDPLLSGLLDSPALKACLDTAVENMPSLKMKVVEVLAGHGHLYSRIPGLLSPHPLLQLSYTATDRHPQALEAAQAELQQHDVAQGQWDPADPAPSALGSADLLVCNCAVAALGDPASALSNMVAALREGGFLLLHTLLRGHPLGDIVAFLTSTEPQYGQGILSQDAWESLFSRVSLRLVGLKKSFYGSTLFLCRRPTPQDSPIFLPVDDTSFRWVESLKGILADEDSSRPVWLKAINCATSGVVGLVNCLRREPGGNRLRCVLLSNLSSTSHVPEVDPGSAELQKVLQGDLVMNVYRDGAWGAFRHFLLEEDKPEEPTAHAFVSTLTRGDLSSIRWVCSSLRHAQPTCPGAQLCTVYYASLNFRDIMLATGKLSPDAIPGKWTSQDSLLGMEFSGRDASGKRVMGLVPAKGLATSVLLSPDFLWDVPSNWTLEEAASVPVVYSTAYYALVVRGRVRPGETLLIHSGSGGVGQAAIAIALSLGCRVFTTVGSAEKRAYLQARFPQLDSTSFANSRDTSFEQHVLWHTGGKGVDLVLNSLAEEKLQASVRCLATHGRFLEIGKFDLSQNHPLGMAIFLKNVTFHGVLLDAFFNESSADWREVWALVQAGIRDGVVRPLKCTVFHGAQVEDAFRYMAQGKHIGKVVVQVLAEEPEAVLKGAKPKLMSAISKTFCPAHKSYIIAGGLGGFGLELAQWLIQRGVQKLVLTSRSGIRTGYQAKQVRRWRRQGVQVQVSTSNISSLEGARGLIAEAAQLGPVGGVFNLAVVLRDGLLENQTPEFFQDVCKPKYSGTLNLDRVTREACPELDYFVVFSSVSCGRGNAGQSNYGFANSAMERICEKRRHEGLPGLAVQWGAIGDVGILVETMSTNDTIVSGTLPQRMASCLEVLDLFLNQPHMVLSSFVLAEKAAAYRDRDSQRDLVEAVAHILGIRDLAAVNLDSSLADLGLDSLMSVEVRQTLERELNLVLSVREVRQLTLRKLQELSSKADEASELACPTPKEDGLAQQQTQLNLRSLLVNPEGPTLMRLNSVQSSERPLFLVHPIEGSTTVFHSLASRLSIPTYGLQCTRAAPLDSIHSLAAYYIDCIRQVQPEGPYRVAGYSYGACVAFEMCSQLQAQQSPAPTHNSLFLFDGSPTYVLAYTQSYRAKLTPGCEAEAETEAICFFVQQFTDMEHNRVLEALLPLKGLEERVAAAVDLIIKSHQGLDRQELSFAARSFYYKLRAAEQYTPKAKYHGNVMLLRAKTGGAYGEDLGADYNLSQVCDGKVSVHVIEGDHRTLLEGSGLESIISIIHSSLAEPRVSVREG
Sequence of Neuropeptide Y receptor type 2 (P49146 whole entry): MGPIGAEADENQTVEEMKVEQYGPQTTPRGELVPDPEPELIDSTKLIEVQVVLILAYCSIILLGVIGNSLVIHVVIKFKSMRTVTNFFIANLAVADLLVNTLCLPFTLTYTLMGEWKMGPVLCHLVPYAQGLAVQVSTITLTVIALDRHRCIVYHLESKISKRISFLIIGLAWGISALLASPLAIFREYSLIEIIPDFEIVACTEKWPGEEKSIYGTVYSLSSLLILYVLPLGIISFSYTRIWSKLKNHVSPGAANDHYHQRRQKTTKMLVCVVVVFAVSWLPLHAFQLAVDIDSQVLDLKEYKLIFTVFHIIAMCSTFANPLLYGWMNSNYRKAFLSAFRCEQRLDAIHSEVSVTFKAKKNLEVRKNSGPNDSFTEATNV
Sequence of Wee1-like protein kinase (P30291 whole entry): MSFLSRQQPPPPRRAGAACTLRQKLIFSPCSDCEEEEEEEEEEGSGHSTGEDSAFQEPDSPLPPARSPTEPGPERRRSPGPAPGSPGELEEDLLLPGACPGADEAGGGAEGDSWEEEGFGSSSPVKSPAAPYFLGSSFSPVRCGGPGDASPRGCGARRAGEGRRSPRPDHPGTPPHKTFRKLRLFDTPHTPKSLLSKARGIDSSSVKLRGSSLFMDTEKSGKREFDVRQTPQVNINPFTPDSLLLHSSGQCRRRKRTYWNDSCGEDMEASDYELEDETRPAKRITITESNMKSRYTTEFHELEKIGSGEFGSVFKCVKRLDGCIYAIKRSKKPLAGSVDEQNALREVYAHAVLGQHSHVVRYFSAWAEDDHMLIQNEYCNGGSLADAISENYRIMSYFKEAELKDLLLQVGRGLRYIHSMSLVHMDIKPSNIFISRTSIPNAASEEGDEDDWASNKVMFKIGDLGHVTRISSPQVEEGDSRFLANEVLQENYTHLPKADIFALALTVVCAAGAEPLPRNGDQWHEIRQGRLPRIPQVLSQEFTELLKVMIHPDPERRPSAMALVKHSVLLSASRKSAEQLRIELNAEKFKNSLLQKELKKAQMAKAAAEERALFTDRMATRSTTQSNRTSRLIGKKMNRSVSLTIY
Sequence of Neuropeptide Y receptor type 1 (P25929 whole entry): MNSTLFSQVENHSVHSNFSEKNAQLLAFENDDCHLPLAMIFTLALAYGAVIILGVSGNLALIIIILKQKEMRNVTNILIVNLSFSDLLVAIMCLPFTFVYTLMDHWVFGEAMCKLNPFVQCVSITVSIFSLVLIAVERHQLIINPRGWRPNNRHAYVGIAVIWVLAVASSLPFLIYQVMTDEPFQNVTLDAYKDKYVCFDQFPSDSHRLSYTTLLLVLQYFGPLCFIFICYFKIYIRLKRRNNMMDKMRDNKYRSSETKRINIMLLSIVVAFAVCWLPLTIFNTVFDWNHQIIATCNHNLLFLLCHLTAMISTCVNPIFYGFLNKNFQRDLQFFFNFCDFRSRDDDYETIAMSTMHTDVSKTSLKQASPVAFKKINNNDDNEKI
Sequence of Beta Lactamase (Q932Y6 whole entry): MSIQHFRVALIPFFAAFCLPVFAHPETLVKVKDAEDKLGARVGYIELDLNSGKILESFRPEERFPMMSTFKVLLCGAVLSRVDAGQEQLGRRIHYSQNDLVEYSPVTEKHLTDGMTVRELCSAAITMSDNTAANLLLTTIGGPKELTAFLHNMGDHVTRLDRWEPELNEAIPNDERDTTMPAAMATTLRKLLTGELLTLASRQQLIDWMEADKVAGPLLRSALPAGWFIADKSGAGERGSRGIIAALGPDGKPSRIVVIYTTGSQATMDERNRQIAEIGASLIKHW
Sequence of Sphingosine 1-phosphate receptor 2 (O95136 whole entry): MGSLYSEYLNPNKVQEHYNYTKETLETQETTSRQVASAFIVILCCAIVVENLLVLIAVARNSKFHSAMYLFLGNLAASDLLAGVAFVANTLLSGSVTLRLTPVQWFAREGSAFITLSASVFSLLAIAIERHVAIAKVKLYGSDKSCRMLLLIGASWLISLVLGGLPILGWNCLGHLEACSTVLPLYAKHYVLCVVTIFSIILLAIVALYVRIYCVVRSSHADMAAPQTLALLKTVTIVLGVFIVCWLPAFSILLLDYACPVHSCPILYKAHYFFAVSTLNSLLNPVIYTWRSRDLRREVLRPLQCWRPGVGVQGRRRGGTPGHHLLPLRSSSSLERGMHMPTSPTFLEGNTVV

## CC[C@@H](C)[C@H](NC(=O)OC(C)(C)C)c1nnc(S(=O)(=O)Cc2cc(C)ccc2C)o1
Fatty acid synthase [1]
  IC50: 3.33 µM (active)
Streptococcus [2]
  EC50: 33.5 µM (active)
[3]
  AC50: 4.36 µM (active)
Beta Lactamase
  IC50: 15.2 µM (inactive)
[4]
  AC50: 15.4 µM (active)
[5]
  AC50: 45.1 µM (active)
Streptokinase A
  EC50: 3.43 µM (active)
Streptococcus [6]
  EC50: > 150 µM (not active)
[7]
  IC50: 3.12 µM (active)
[8]
  AC50: 5.77 µM (active)
[9]
  EC50: 16.2 µM (active)
Fatty acid synthase [10]
  IC50: 4.12 µM (active)

## COc1ccc(CN2C(=O)/C(=C\Nc3ccccc3C(=O)O)c3ccccc3C2=O)cc1
Aminopeptidase N
  IC50: 24.7 µM (active)
[11]
  EC50: > 11.8 µM (not active)
HEK293
  EC50: > 35.4 µM (not active)
[12]
  EC50: > 35.4 µM (not active)

## CCOc1cccc(N(C(=O)Cc2cccs2)C(C(=O)NC2CCCCC2)c2cccn2C)c1 (configuration not stated)
[13]
  EC50: > 120 µM (not active)
[14]
  EC50: > 49.7 µM (not active)
[15]
  AC50: 6.74 µM (active)
[16]
  EC50: 15.1 µM (active)
[17]
  AC50: 24.5 µM (active)
Wee1-like protein kinase
  EC50: > 49.7 µM (not active)
[18]
  EC50: 19.1 µM (active)
[19]
  AC50: 42 µM (active)
[20]
  AC50: 55.9 µM (active)

## COc1cnc(-c2ccccn2)nc1Sc1ccc(F)cc1
[21]
  IC50: > 67 µM (not active)
[22]
  IC50: 7.21 µM (active)

## COCCNC(=O)CN(C)CC(=O)c1cc(C)n(Cc2ccccc2)c1C
[23]
  EC50: > 30 µM (not active)

## CC1=C(C#N)C(=O)N(CCO)C(=O)/C1=N/Nc1ccc2c(c1)COC2=O
[24]
  AC50: 9.69 µM (active)
[25]
  EC50: > 100 µM (active)
[26]
  EC50: 9.38 µM (active)

## Sc1nnc(-c2ccncc2)n1/N=C/c1cn(-c2ccccc2)nc1-c1ccccc1
Oxytocin receptor
  EC50: > 29.9 µM (not active)
